Our source for the IC50 and inhibition values is patent US9718817B2, “Aryl and heteroaryl ether compounds as ROR gamma modulators” (Glenmark Pharmaceuticals S.A., priority 2014, dated 2017).

In the experiment the target is T1, GST-tagged ROR gamma ligand binding domain (LBD) (Homo sapiens, UniProt P51449).
T1 construct: purchased Invitrogen
T1 sequence (P51449 269-508 limits assumed): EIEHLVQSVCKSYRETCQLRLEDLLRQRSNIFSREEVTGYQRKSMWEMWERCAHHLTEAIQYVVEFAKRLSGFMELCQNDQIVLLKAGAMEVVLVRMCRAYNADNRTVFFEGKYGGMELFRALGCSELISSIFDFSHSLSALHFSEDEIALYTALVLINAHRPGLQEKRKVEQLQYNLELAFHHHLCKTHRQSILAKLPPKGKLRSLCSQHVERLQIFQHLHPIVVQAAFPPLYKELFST
The experiment is described as follows: TR-FRET assay for ROR gamma (LanthaScreen co-activator peptide recruitment). The conditions noted are these: for IC50: class symbols, from dose response curve; for inhibition at 1 µM: compound 1 μM; for inhibition at 1 µM / inhibition at 10 µM: TR-FRET ratio 520/495, percent of control; for inhibition at 10 µM: compound 10 μM. Type of experiment: biochemical. In short, it runs like this:
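Antagonist mode: 10 nM GST-RORγ LBD pre-incubated with compound 1 h at 22 °C in 25 mM HEPES pH 7.4, 100 mM NaCl, 5 mM DTT, 0.01% BSA, 4% DMSO final. Then 300 nM fluorescein-D22 co-activator peptide plus 10 nM Tb-anti-GST added, 1 h at room temperature. IC50 by nonlinear regression of the 520/495 TR-FRET ratio as percent of no-compound control.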
Background: TR-FRET usually uses a lanthanide donor and a delayed reading to cut background.

Molecules are shown by their SMILES.

As to `CCS(=O)(=O)c1ccc(CC(=O)Nc2ccc(OC3(c4ccc(Cl)cc4Cl)CCOCC3)c(F)c2)cc1` [Example 136, N-(4-((4-(2,4-Dichlorophenyl)tetrahydro-2H-pyran-4-yl)oxy)-3-fluorophenyl)-2-(4-(ethylsulfonyl)phenyl)acetamide], the IC50 is less than 50 nM, the inhibition at 1 µM was 71.6% and the inhibition at 10 µM stood at 79.3%.

For the molecule `CCS(=O)(=O)c1ccc(CC(=O)Nc2ccc(OC3(c4ccc(Cl)cc4Cl)CCCC3)c(F)c2)cc1` [Example 137, N-(4-((1-(2,4-Dichlorophenyl)cyclopentyl)oxy)-3-fluorophenyl)-2-(4-(ethylsulfonyl)phenyl)acetamide], the IC50 is less than 50 nM, the inhibition at 1 µM was 80% and the inhibition at 10 µM was 86.5%.

As for `CCS(=O)(=O)c1ccc(CC(=O)Nc2ccc(OC3(c4ccc(Cl)cc4Cl)CC3)c(F)c2)cc1` [Example 138, N-(4-((1-(2,4-Dichlorophenyl)cyclopropyl)oxy)-3-fluorophenyl)-2-(4-(ethylsulfonyl)phenyl)acetamide], the IC50 was less than 50 nM, the inhibition at 1 µM came out at 86.8% and the inhibition at 10 µM was 83.6%.

As for `CCS(=O)(=O)c1ccc(CC(=O)Nc2ccc(OC3(c4ccc(Cl)cc4Cl)CCC3)c(F)c2)cc1` [Example 139, N-(4-((1-(2,4-Dichlorophenyl)cyclobutyl)oxy)-3-fluorophenyl)-2-(4-(ethylsulfonyl)phenyl)acetamide], the IC50 is less than 50 nM, the inhibition at 1 µM was 86.3% and the inhibition at 10 µM came out at 82.6%.

For the molecule `CCS(=O)(=O)c1ccc(CC(=O)Nc2ccc(OC3(c4ccc(F)cc4F)CCCCC3)c(F)c2)cc1` [Example 140, N-(4-((1-(2,4-Difluorophenyl)cyclohexyl)oxy)-3-fluorophenyl)-2-(4-(ethylsulfonyl)phenyl)acetamide], the IC50 is less than 50 nM, the inhibition at 1 µM turned out to be 69.1% and the inhibition at 10 µM was found to be 72.8%.

`CCS(=O)(=O)c1ccc(CC(=O)Nc2ccc(OC3(c4ccc(F)cc4F)CCC3)c(F)c2)cc1` [Example 141, N-(4-(1-(2,4-Difluorophenyl)cyclobutoxy)-3-fluorophenyl)-2-(4-(ethylsulfonyl)phenyl)acetamide]: the IC50 was less than 50 nM, the inhibition at 1 µM is 81.4% and the inhibition at 10 µM turned out to be 75.2%.

For the molecule `CCS(=O)(=O)c1ccc(CC(=O)Nc2ccc(OC3(c4ccc(F)cc4F)COC3)c(F)c2)cc1` [Example 142, N-(4-((3-(2,4-Difluorophenyl)oxetan-3-yl)oxy)-3-fluorophenyl)-2-(4-(ethylsulfonyl)phenyl)acetamide], the IC50 was less than 50 nM, the inhibition at 1 µM was 81.1% and the inhibition at 10 µM amounted to 81.5%.

On to `CCn1c(C(C)(C)Oc2ccc(Cl)cc2Cl)nc2cc(NC(=O)Cc3ccc(S(=O)(=O)CC)cc3)ccc21` [Example 144, N-(2-(2-(2,4-Dichlorophenoxy)propan-2-yl)-1-ethyl-1H-benzo[d]imidazol-5-yl)-2-(4-(ethylsulfonyl)phenyl)acetamide], for which the IC50 is less than 50 nM, the inhibition at 1 µM was 90.6% and the inhibition at 10 µM was found to be 92.5%.

With `CCS(=O)(=O)c1ccc(CC(=O)Nc2ccc3c(c2)nc(C(C)(C)Oc2ccc(F)cc2F)n3CCF)cc1` [Example 145, N-(2-(2-(2,4-Difluorophenoxy)propan-2-yl)-1-(2-fluoroethyl)-1H-benzo[d]imidazol-5-yl)-2-(4-(ethylsulfonyl)phenyl)acetamide], the IC50 is less than 50 nM, the inhibition at 1 µM came out at 79.7% and the inhibition at 10 µM was 85.8%.

The term IC50 denotes the midpoint of a concentration-inhibition curve. Lower therefore signals inhibition by little substance. What is called inhibition is the percentage by which the read-out fell short of the control.
